Usually NOAEL stands for the highest dose or exposure tested at which no adverse effect was seen.

The results in this text go back to EPA's ToxValDB 9.5 (doi:10.2903/j.efsa.2014.3814).

The structures appear in SMILES notation. Values after ≈ are worked out from the molar mass of the structure shown.

Data set [1] concerns Apis mellifera. The conditions noted are these: acute, mortality.
In data set [2] the test system is Bibionidae. The conditions noted are these: chronic/long-term; duration: 28 days.
In data set [3] the test system is Canidae. Conditions: chronic; duration: 1 years; oral; Dog Other; organ weight.
The subject of data set [4] is Colinus virginianus.
Data set [5] relates to Folsomia candida. The conditions noted are these: chronic/long-term; duration: 28 days.
Data set [6] relates to Hypoaspis aculeifer. Conditions: chronic/long-term; duration: 14 days.
Data set [7] concerns Ictalurus punctatus. The conditions noted are these: acute; duration: 96 hours; mortality.
Data set [8] has as its system Lepomis macrochirus. The conditions noted are these: acute; duration: 96 hours; mortality.
Data set [9] concerns Oryctolagus sp. Conditions: reproduction developmental; body weight.
Data set [10] concerns Pimephales promelas. Conditions: chronic/long-term; duration: 33 days; growth.
Data set [11] concerns Pontoscolex corethrurus.
Data set [12] has as its system Rattus norvegicus.
The subject of data set [13] is Aphidius rhopalosiphi. Description: LR50; higher = less toxic. Conditions: not reported; mortality.
Data set [14] concerns Typhlodromus pyri. Description: LR50; higher = less toxic. Conditions: not reported; mortality.

On to `CNC(=O)c1cc(C#N)cc(C)c1NC(=O)c1cc(Br)nn1-c1ncccc1Cl` [Cyantraniliprole], for which the LD50 in data set [1] (dermal) was more than 0.0934 µg/piece; in data set [1] (oral, unspecified) it was more than 0.105 µg/piece; in data set [4] (acute, oral) it was more than 2250 mg/kg; in data set [12] (acute, oral, mortality) it was more than 5000 mg/kg. The NOEC in [2] is 0.01 mg/L; in data set [5] it was 0.08 mg/kg; in data set [6] it was 1000 mg/kg; in [10], 2.9 mg/L; in [11] (chronic/long-term, duration: 56 days), more than 1000 mg/kg. The no observed adverse effect level (NOAEL) in data set [3] was found to be 1 mg/kg-day; in [4] (reproduction developmental), 93.2 mg/kg-day; in data set [9], 25 mg/kg-day; in [12] (reproduction developmental, organ weight) it was 1.2 mg/kg-day. Also, the LC50 in data set [4] (acute, oral, diet) is more than 1340 mg/kg; in [7], more than 10 µg/mL; in data set [8], 2.4 µg/mL (≈ 5.07 µM); in data set [11] (acute, duration: 14 days, mortality), more than 1000 mg/kg. Also, the values for the LR50 in data set [13] and in data set [14] were 0.102 g/ha and more than 230 g/ha, respectively.
